Source: patent US11596632B2, “JAK1 pathway inhibitors for the treatment of gastrointestinal disease” (Incyte Corporation, priority 2018, dated 2023)

Experiments:
[1] = biological target: human JAK1 (a.a. 837-1142) (Homo sapiens (Human), UniProt P23458); experiment: In vitro JAK kinase assay (HTRF), JAK1; type: biochemical; conditions: 1 mM ATP
Method: The catalytic activity of JAK1, JAK2 or JAK3 was assayed by measuring the phosphorylation of a biotinylated peptide. The phosphorylated peptide was detected by homogenous time resolved fluorescence (HTRF). […] Reactions are carried out at room temperature for 1 hour and then stopped with 20 μL 45 mM EDTA, 300 nM SA-APC, 6 nM Eu-Py20 in assay buffer (Perkin Elmer, Boston, Mass.). Binding to the Europium labeled antibody takes place for 40 minutes and HTRF signal was measured on a Fusion plate reader (Perkin Elmer, Boston, Mass.).

[2] = test system: IL-6 stimulated phosphorylation of STAT3 in PBMCs; experiment: IL-6 stimulated STAT3 phosphorylation in human PBMC; type: cell-based; conditions: read-out: in vitro IC50 for suppression of IL-6 stimulated phosphorylation of STAT3 in PBMCs (JAK1 inhibition)
Method: Two different assays can be used to understand the functional activity of JAK1 inhibition. The first is a standard cell based assay and the other using whole blood. The former is conducted using human peripheral blood mononuclear cells (PBMC); briefly, the cells are stimulated with IL-6 to increase JAK1 activity, which is measured via phosphorylated STAT3. As increasing concentrations of Compound 1 are added, a corresponding decrease in phosphorylated STAT3 is observed. This assay is appropriate to assess JAK1 activity and/or the inhibitory activity of Compound 1 in samples that are devoid of serum proteins, e.g., feces samples.

[3] = test system: IL-6 stimulated phosphorylated STAT3 in whole blood; experiment: IL-6 stimulated STAT3 phosphorylation in whole blood; type: cell-based; conditions: Homo sapiens, IL-6 stimulated pSTAT3, read-out: ex vivo whole blood IC50
Method: (§1) To assess the inhibitory activity of Compound 1 in serum-rich media, e.g., plasma or whole blood, the assay is conducted using whole blood; briefly, the whole blood sample is stimulated with IL-6 and levels of phosphorylated STAT3 are determined. This assay can be conducted either in vitro (human blood samples are spiked with Compound 1) or ex vivo (whole blood samples collected from human subjects dosed with Compound 1).

[4] = Ex vivo colon permeation study (Ussing diffusion chamber / tube), LSC; type: in vitro ADME, human; conditions: healthy and UC colon, 100 and 1000 nM, 1 h; LLOQ 2 times background (21 dpm)
Method: Methods: Compound 1 concentrations in plasma and feces (colonic surrogate) were determined following a single sustained release 25 mg oral dose (see, e.g., Example B, 25 mg SR composition). Compound 1 concentrations in plasma following a single 100 mg dose were also determined in a separate study (see, e.g., Example C for measuring concentrations of Compound 1 in plasma). Ex vivo study: Colon tissue samples from healthy and UC subjects (2/group) were mounted on a vertical Ussing diffusion chamber. [^14C]Compound 1 was applied to the apical side of the chamber at 100 and 1000 nM and incubated for 1 h. Samples were collected from the donor and receiver sides for determination of Compound 1 concentration. The colonic tissue was snap frozen for quantitative autoradiography.
A small piece of two colon samples from two healthy and UC subjects (total eight samples) were provided by Analytical Biological Services Inc. (Wilmington, Del.) and stored at −70° C. until use.
Dose formulations, i.e., 100 nM and 1000 nM, were prepared on the day of the experiment for all tissues in the study. [^14C]Compound 1 (1.06 mg) was dissolved in dimethyl sulfoxide (DMSO; 1.514 mL) to produce a 1 mM stock solution (0.7 mg/mL). […]
[^14C]Compound 1 concentrations in both donor and receiver sides were analyzed by LSC. The lower limit of quantitation (LLOQ) was determined as 2 times the background (21 dpm).

[5] = test system: patients with plaque psoriasis; experiment: Clinical study in patients with plaque psoriasis (sPGA, safety); type: in vivo, human
Method: (§2) The systemic effects of Compound 1 have been studied in the auto-immune diseases RA and Ps. Inhibition of phosphorylation of STAT3 following stimulation with IL-6, a marker of AK1 inhibition, and TPO, a marker of JAK2 inhibition was measured in both studies. In patients with Ps doses of 100 mg QD, 200 mg QD, 200 mg BID, and 600 mg QD were studied.

[6] = test system: IL-6-induced STAT3 phosphorylation; experiment: Ex vivo IL-6-induced STAT3 phosphorylation in dosed patients (marker of JAK1 inhibition); design: species or system human; conditions: 100 mg QD to 600 mg QD
Method: as §1, §2

[7] = test system: TPO-induced STAT3 phosphorylation; experiment: Ex vivo TPO-induced STAT3 phosphorylation in dosed patients (marker of JAK2 inhibition); design: species or system human
Method: as §2

human JAK1 (a.a. 837-1142), sequence (P23458 837-1142): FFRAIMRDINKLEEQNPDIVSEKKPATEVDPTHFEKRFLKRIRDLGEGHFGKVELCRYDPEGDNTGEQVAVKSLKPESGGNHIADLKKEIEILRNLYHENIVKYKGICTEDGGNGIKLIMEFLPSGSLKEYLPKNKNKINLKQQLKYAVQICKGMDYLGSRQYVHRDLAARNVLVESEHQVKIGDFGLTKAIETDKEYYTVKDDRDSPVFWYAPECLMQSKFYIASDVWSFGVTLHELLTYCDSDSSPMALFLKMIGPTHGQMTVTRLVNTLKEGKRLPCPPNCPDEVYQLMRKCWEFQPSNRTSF

N#CCC1(n2cc(-c3ncnc4[nH]ccc34)cn2)CN(C2CCN(C(=O)c3ccnc(C(F)(F)F)c3F)CC2)C1 [Compound 1, {1-{1-[3-Fluoro-2-(trifluoromethyl)isonicotinoyl]piperidin-4-yl}-3-[4-(7H-pyrrolo[2,3-d]pyrimidin-4-yl)-1H-pyrazol-1-yl]azetidin-3-yl}acetonitrile]
IC50 [1]: < 10 nM | IC50 [2]: 58 nM | IC50 [3]: 141 nM | radioactivity / concentration in basolateral side (receiver compartment) [4]: no Compound 1 related radioactivity was detected from the receiver side | mean change from baseline sPGA at Day 28, dose relation ([5]; 100 mg QD, 200 mg QD, 200 mg BID, 600 mg QD): dose-dependent response | Day 28 sPGA score, Mean (SD) ([5]; 100 mg QD, n=9): 2.6 (1.01) | Day 28 sPGA score, Median ([5]; 100 mg QD, n=9): 2.0 | Percent change from baseline in sPGA score at Day 28, Median ([5]; 100 mg QD, n=9): −33.3% | Percent change from baseline in sPGA score at Day 28, Mean (SD) ([5]; 100 mg QD, n=9, p=0.270 vs placebo): −22.2 (23.57) Percent | change from baseline in sPGA, clinical meaning ([5]; 200 mg BID (p=0.053) and 600 mg QD (p=0.003)): clinically meaningful changes from baseline | Day 28 sPGA score, Mean (SD) ([5]; 200 mg BID, n=9): 2.0 (1.00) | Day 28 sPGA score, Median ([5]; 200 mg BID, n=9): 2.0 | Percent change from baseline in sPGA score at Day 28, Median ([5]; 200 mg BID, n=9): −33.3% | Percent change from baseline in sPGA score at Day 28, Mean (SD) ([5]; 200 mg BID, n=9, p=0.053 vs placebo): −35.2 (33.79) Percent | Day 28 sPGA score, Mean (SD) ([5]; 200 mg QD, n=9): 2.3 (1.00) | Day 28 sPGA score, Median ([5]; 200 mg QD, n=9): 2.0 | Percent change from baseline in sPGA score at Day 28, Median ([5]; 200 mg QD, n=9): −33.3% | Percent change from baseline in sPGA score at Day 28, Mean (SD) ([5]; 200 mg QD, n=9, p=0.118 vs placebo): −29.4 (31.14) Percent | Day 28 sPGA score, Mean (SD) ([5]; 600 mg QD, n=11): 1.8 (0.98) | Day 28 sPGA score, Median ([5]; 600 mg QD, n=11): 2.0 | Percent change from baseline in sPGA score at Day 28, Median ([5]; 600 mg QD, n=11): −33.3% | Percent change from baseline in sPGA score at Day 28, Mean (SD) ([5]; 600 mg QD, n=11, p=0.003 vs placebo): −42.4 (26.21) Percent | neutropenia ([5]; psoriasis patients): No neutropenia was noted | inhibition of IL-6 induced pSTAT3 ([6]; RA patients, Cycle 1 Day 15): general trend of dose-dependent inhibition of IL-6 induced pSTAT3 | inhibition of pSTAT3 in response to IL-6 stimulation ex vivo ([6]; psoriasis patients): concentration dependent inhibition of pSTAT3 | TPO induced pSTAT3 inhibition ([7]; RA patients, 100 mg QD to 600 mg QD, Cycle 1 Day 15): general trend of increasing TPO induced pSTAT3 inhibition | inhibition of pSTAT3 in response to TPO ([7]; psoriasis patients, 100 mg QD, 200 mg QD, and 200 mg BID): no significant inhibition of pSTAT3
